According to patent US12156861B2, “Pharmaceutical composition for treating kidney cancer and application thereof” (SICHUAN JIUZHANG BIOLOGICAL SCIENCE AND TECHNOLOGY CO., LTD., priority 2018, dated 2024):
Read-outs that look alike come from different tables or passages of the source.

Experiments:
[1] = test system: human renal cancer cell lines A498; assay: WST-1 growth inhibition of human renal cancer cell line A498 in vitro; assay type: cell-based; conditions: for Observation of cell morphology / effect on cell growth: inverted microscope, compared with negative control; for inhibition at 15 µg/mL: final concentration 15 μg/ml; for inhibition at 60 µg/mL: final concentration 60 μg/ml; for OD value (average): WST-1, absorption at 440 nm
Protocol: (§1) Human kidney cancer cell line A498 and mouse kidney cancer cell line RuCa; the cells were passaged prior to use, and the cells that were in a good growth state and in log phase growth were selected for use.
(§2) Then, the cells were suspended in complete medium, and the cell concentration was adjusted to 6×10^4/ml. The cells were seeded in 96 well plates at 50 μl/well […], and three multiple wells were set up for each drug concentration.
(§3) On the next day after inoculation, once cells were adherent to the wall, the drugs were added according to the following groups and then incubated for 48 h.
The storage solution of each drug was prepared into 60 μg/ml with complete medium for use; the complete medium of each test drug mentioned above (50 μl) was placed in the 96-well plate inoculated cells, […], three wells for each concentration.
Then, 10 μl WST-1 solution was added into the wells of above drug groups, negative control group, and blank control group. […]
In order to objectively evaluate the synergistic effect of the combination of the three compounds, according to the standard proposed in the non patent literature Chou T C. Theoretical basis, experimental design, and computerized simulation of synergism and antagonism in drug combination studies. [J].
A, B and C denote the doses of three components in the pharmaceutical composition; Ae, Be, and Ce denote the dose of a single component required to achieve the tumor inhibition efficiency of the pharmaceutical composition when using a single compound alone. […] The smaller the CI value is, the stronger the synergistic effect is.

[2] = test system: mouse renal cancer cell lines RuCa; assay: WST-1 growth inhibition of mouse renal cancer cell line RuCa in vitro; assay type: cell-based; conditions: for Inhibition rate (%): Comparative Example 1, method of Experimental Example 1; for Observation of cell morphology / effect on cell growth / inhibition at 30 µg/mL / OD value (average): 48 h; for Observation of cell morphology / effect on cell growth: inverted microscope, compared with negative control; for inhibition at 30 µg/mL: Mus musculus, read-out: Inhibition rate (%); for inhibition at 30 µg/mL / OD value (average): final concentration 30 μg/ml; for OD value (average): WST-1, absorption at 440 nm
Protocol: as §1, §2, §3
The storage solution of each drug was prepared into 60 μg/ml with complete medium for use; the complete medium of each test drug mentioned above (50 μl) was placed in the 96-well plate inoculated cells, and the final concentration of each group was 30 μg/ml, three wells for each concentration.
Then, 10 μl WST-1 solution was added into the wells of above drug groups, negative control group, and blank control group. After the cells were incubated in 37° C. incubator for 4 h, the absorption values of different drug groups, negative control group and blank control group were measured at 440 nm by μ-Quant microplate analyzer.

[3] = test system: transplanted tumor RuCa in mice; assay: Inhibitory effect on transplanted tumor RuCa in mice; assay type: in vivo, mouse; conditions: for Tumor inhibition rate (%) / Body weight 15 d after administration / Tumor weight: 30 mg/kg ip once a day, 15 times; for Body weight 15 d after administration / Tumor weight / Body weight Before administration: x ± SD, n = 10; for Body weight Before administration: baseline
Source text: Mouse renal cancer cell lines RuCa were established by subcutaneously inoculating in mouse axillary. The number of cells inoculated was 1×10^7, and after inoculation formed transplanted tumor, the cells were passaged in mice for 3 generations for use.
• 80 BABL/C-nu mice, half male and half female, weighing 18-22 g; 2 Experimental Method 2.1 Route of Administration
intraperitoneal injection (ip)
The tumor tissue in vigorous growth stage was cut into about 1.5 mm^3 and homogenized under aseptic conditions to prepare 1×10^7/ml cell suspension. 80 mice of the above specifications were inoculated subcutaneously in the right armpit with 0.1 ml cell suspension. On the second day after inoculation, the mice were weighed and randomly divided into 8 groups, with 10 mice in each group, that were test drug 1 group, test drug 2 group, test drug 3 group, test drug 4 group, test drug 5 group, test drug 6 group, test drug 7 group, and negative control group. The test drug group was administrated by intraperitoneal injection (ip), 30 mg/kg/time, once a day, and the administration was successively performed 15 times. The negative group was intraperitoneally injected with the same dose of normal saline, once a day, and the mice were weighed before administration.
At the end of administration, the experiment was stopped, and the mice were killed by cervical dislocation and weighed. The tumor was stripped, and the tumor inhibition rate was calculated.

[4] = Homo sapiens, A498, read-out: Inhibition rate (%)
[5] = Homo sapiens, A498, final concentration 30 μg/ml (Table 3), read-out: Inhibition rate (%)
[6] = Homo sapiens, A498, final concentration 30 μg/ml, 48 h, read-out: Inhibition rate (%)
[7] = final concentration 30 μg/ml, 48 h

| Molecule | inhibition at 0.1 µg/mL ([1]; Homo sapiens, A498, final concentration 0.1 μg/ml, read-out: Inhibition rate (%)) [%] | inhibition at 0.5 µg/mL ([1]; Homo sapiens, A498, final concentration 0.5 μg/ml, read-out: Inhibition rate (%)) [%] | inhibition at 1 µg/mL ([1]; Homo sapiens, A498, final concentration 1 μg/ml, read-out: Inhibition rate (%)) [%] | Inhibition rate (%) [2] [%] | Observation of cell morphology / effect on cell growth ([1]; 48 h) | inhibition at 15 µg/mL [1, 4] [%] | inhibition at 30 µg/mL [1, 5] [%] | inhibition at 30 µg/mL [1, 6] [%] | inhibition at 60 µg/mL [1, 4] [%] | OD value (average) [1, 7] | Observation of cell morphology / effect on cell growth [2] | inhibition at 30 µg/mL [2] [%] | OD value (average) [2] | Tumor inhibition rate (%) [3] [%] | Body weight 15 d after administration [3] | Tumor weight [3] [g] | Body weight Before administration [3] |
| --- | --- | --- | --- | --- | --- | --- | --- | --- | --- | --- | --- | --- | --- | --- | --- | --- | --- |
| CNC(=O)c1cc(Oc2ccc(NC(=O)Nc3ccc(Cl)c(C(F)(F)F)c3)cc2)ccn1 [Sorafenib, sorafenib, reference compound] | 5.36 | 13.8 | 29.4 |  |  |  |  |  |  |  |  |  |  |  |  |  |  |
| Feruloylquinic acid [reference compound] |  |  |  | 10.42 |  |  |  |  |  |  |  |  |  |  |  |  |  |
| Cinnamoylquinic acid [reference compound] |  |  |  | 13.94 |  |  |  |  |  |  |  |  |  |  |  |  |  |
| O=C(/C=C/c1ccc(O)cc1)O[C@@H]1C[C@](O)(C(=O)O)C[C@@H](O)[C@H]1O [Coumaroylquinic acid, coumaroylquinic acid] |  |  |  |  | almost had no effect on cell growth | 1.92 | 4.85 | 3.13 | 7.13 | 2.280 | almost had no effect on cell growth | 5.85 | 1.909 | 7.41 | 25.2 ± 1.42 | 2.5 ± 0.19 | 19.4 ± 1.17 |
| O=C(/C=C/c1ccc(O)c(O)c1)O[C@@H]1C[C@](O)(C(=O)O)C[C@@H](O)[C@H]1O [Chlorogenic acid, chlorogenic acid] |  |  |  | 37.29 | certain effect on cell growth | 15.7 | 37.2 | 36.5 | 61.3 | 1.494 | certain effect on cell growth | 38.5 | 1.248 | 33.33 | 27.3 ± 1.19 | 1.8 ± 0.14 | 19.6 ± 0.98 |
